# In the supplement of paper PMC10307832:
# Tests used:
# Experiment in all cases: relative viability (nuclei count vs DMSO), 5 days (fraction); higher = more cells survive
# [1] = compound: C/C(=N\NC(=S)N1CCC1)/C2=CC=CC=N2 + COc1cc2c(Oc3ccc(NC(=O)C4(C(=O)Nc5ccc(F)cc5)CC4)cc3F)ccnc2cc1OCCCN1CCOCC1 [Foretinib] (partner 0.25 µM)
# Procedure, shortened: (§1)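 Nuclei were stained with Hoechst during a one-step fixation (final 0.05% Triton X-100, 1% formaldehyde, 1 ug/ml Hoechst) carried out 5 days after dosing, then counted on 4× images. The cells, lung cancer lines in 1536-well plates, had been dosed by pin tool the day after seeding with one drug alone or a fixed anchor-drug dose plus five library-drug doses (not always all listed) in √10 steps. Relative viability is the nuclei count in treated wells divided by that in vehicle wells, and each value is the median of duplicate plates.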
# [2] = compound: C/C(=N\NC(=S)N1CCC1)/C2=CC=CC=N2 + O=C(CCCCCCC(=O)Nc1ccccc1)NO [Vorinostat] (partner 1 µM)
# Procedure, shortened: as §1
# [3] = compound: C/C(=N\NC(=S)N1CCC1)/C2=CC=CC=N2 + NC(=O)Nc1cc(-c2cccc(F)c2)sc1C(=O)N[C@H]1CCCNC1 [AZD7762] (partner 0.2 µM)
# Procedure, shortened: as §1
# [4] = compound: C/C(=N\NC(=S)N1CCC1)/C2=CC=CC=N2 + CS(=O)(=O)N1CCN(Cc2cc3nc(-c4cccc5[nH]ncc45)nc(N4CCOCC4)c3s2)CC1 [Pictilisib] (partner 1 µM)
# Procedure, shortened: as §1
Cell Line,relative viability ([1]; first compound 0.05 µM),relative viability ([1]; first compound 0.1581 µM),relative viability ([1]; first compound 0.5 µM),relative viability ([1]; first compound 1.581 µM),relative viability ([1]; first compound 5 µM),relative viability ([2]; first compound 0.05 µM),relative viability ([2]; first compound 0.1581 µM),relative viability ([2]; first compound 0.5 µM),relative viability ([2]; first compound 1.581 µM),relative viability ([2]; first compound 5 µM),relative viability ([3]; first compound 0.05 µM),relative viability ([3]; first compound 0.1581 µM),relative viability ([3]; first compound 0.5 µM),relative viability ([3]; first compound 1.581 µM),relative viability ([3]; first compound 5 µM),relative viability ([4]; first compound 0.05 µM),relative viability ([4]; first compound 0.1581 µM),relative viability ([4]; first compound 0.5 µM),relative viability ([4]; first compound 1.581 µM),relative viability ([4]; first compound 5 µM)
NCI-H441,0.314,0.236,0.238,0.174,0.167,0.16,0.19,0.153,0.111,0.127,0.264,0.178,0.173,0.144,0.153,0.127,0.101,0.115,0.108,0.128
NCI-H1793,0.229,0.382,0.157,0.143,0.188,0.189,0.139,0.127,0.124,0.133,0.129,0.199,0.104,0.116,0.142,0.195,0.203,0.163,0.172,0.15
NCI-H23,0.226,0.262,0.196,0.181,0.209,0.15,0.11,0.124,0.0929,0.102,0.0952,0.131,0.124,0.096,0.131,0.132,0.16,0.159,0.132,0.117
HARA,0.207,0.307,0.09,0.0777,0.0635,0.0948,0.381,0.0375,0.076,0.0809,0.129,0.199,0.144,0.104,0.124,0.0923,0.0752,0.0784,0.0856,0.0671
NCI-H1792,–,–,–,–,–,–,–,–,–,–,0.107,0.0965,0.0559,0.0274,0.0333,0.193,0.149,0.122,0.0959,0.0891
NCI-H1703,0.163,0.142,0.163,0.206,0.246,–,–,–,–,–,0.0509,0.0548,0.0472,0.114,0.102,0.102,0.0942,0.162,0.159,0.167
NCI-H2342,0.255,0.244,0.263,0.24,0.233,0.28,0.288,0.267,0.234,0.265,0.302,0.32,0.278,0.256,0.285,–,–,–,–,–
CAL-12T,0.184,0.21,0.146,0.161,0.138,0.0882,0.112,0.127,0.101,0.114,0.284,0.226,0.281,0.206,0.159,0.168,0.198,0.138,0.167,0.178
NCI-H727,0.225,0.231,0.227,0.227,0.22,0.298,0.327,0.299,0.311,0.304,0.265,0.249,0.311,0.228,0.312,0.236,0.195,0.154,0.15,0.139
NCI-H2085,0.322,0.373,0.296,0.269,0.253,0.339,0.379,0.355,0.288,0.305,0.263,0.278,0.293,0.223,0.271,0.27,0.301,0.353,0.326,0.296
NCI-H1395,0.381,0.368,0.369,0.351,0.349,0.302,0.405,0.31,0.312,0.339,0.287,0.326,0.402,0.35,0.406,0.386,0.371,0.305,0.343,0.377
NCI-H1648,–,–,–,–,–,0.217,0.48,0.339,0.342,0.245,0.337,0.305,0.269,0.288,0.297,–,–,–,–,–
NCI-H460,0.1,0.06,0.0602,0.0533,0.0171,0.0355,0.029,0.0302,0.03,0.0178,0.0608,0.0607,0.0479,0.0377,0.0347,0.108,0.12,0.0972,0.13,0.0516
A549,0.0523,0.0338,0.0289,0.0404,0.0168,–,–,–,–,–,–,–,–,–,–,0.0548,0.0774,0.0703,0.0543,0.0578
IA-LM,0.0694,0.0465,0.0654,0.0441,0.0339,0.0691,0.0691,0.0591,0.059,0.051,–,–,–,–,–,0.0879,0.0508,0.0707,0.0558,0.0544
EKVX,0.0957,0.192,0.118,0.104,0.984,0.196,0.223,0.186,0.205,0.221,0.106,0.115,0.128,0.14,0.143,0.113,0.127,0.115,0.107,0.124
ChaGo-K-1,0.217,0.24,0.211,0.176,0.171,0.164,0.159,0.155,0.143,0.165,0.177,0.175,0.154,0.154,0.154,0.233,0.392,0.232,0.237,0.293
NCI-H1755,0.518,0.35,0.283,0.268,0.258,0.294,0.226,0.223,0.233,0.225,0.357,0.262,0.253,0.256,0.292,0.171,0.168,0.162,0.157,0.136
